# Measured values taken from patent US20040034102A1, “Oral pediatric trimethobenzamide formulations and methods” (King Pharmaceuticals, Inc., priority 2002, published 2004).
# Read-outs that look alike come from different tables or passages of the source.
# What was measured:
# [1] = Safety assessment in the crossover study (adverse events, laboratory tests); format: in vivo, human; on DIARRHEA (treatment emergent AE): test concentration or dose not given here; on ERYTHEMA, PALMAR (treatment emergent AE): test concentration or dose not given here
# Source text: Seventy-four healthy, non-smoking, male & female subjects, 18-65 years old were enrolled in this study. A total of 68 subjects completed all the requirements of the protocol. There were no enrollment violations. However, nine of the 74 subjects began the study during the third period of the initial group of subjects. All 74 subjects who received at least one dose of study medication were included in the safety analysis.
# This study was a single center, randomized, open-label, 4-way crossover study in healthy subjects. Dosing was administered in the fasted state. Seventy-four (74) subjects were randomized into the study. All seventy-four subjects received one or more doses of study medication and are therefore included in the safety assessment. On Treatment Day 1 of the first treatment period, each subject was randomized to receive one of four possible study treatment sequences. The treatment groups consisted of the four treatments administered sequentially as DCAB, ADBC, BACD or CBDA. These treatments are shown below.
# A signed informed consent was obtained from each subject. For screening purposes, the following procedures were required of each subject and were performed by the clinical site within 30 days prior to the study: a complete physical examination including a medical history, vital signs, clinical laboratory safety tests on blood and urine, medications taken prior to and during the study, and a serum pregnancy test for female subjects.
# During the treatments, temperature, blood pressure, heart rate and respiratory rate were monitored as a safety measure. A physical examination and clinical laboratory tests were repeated at the completion of the study. Subjects were observed and questioned throughout the study for the occurrence of any adverse events.
# [2] = cited from earlier work
# [3] = FDA notice; cited from earlier work
# [4] = 74 subjects, all 4 treatment periods
substance,measurement,setting,value
"N-[2-(dimethylamino)-ethoxy]-3,4,5trimethoxybenzamide hydrochloride [trimethobenzamide hydrochloride]",subjects with decreased red blood cell count at the end of treatment,[1]; 5 percent prior to treatment,11%
same,subjects with low hematocrit at the end of treatment,[1]; 8 percent prior to treatment,34%
same,"adverse events (AEs) experienced, total",[1]; [4],28
same,treatment emergent AEs,[1]; [4],27
same,AEs assessed as related to study treatment,[1]; all mild to moderate,21
same,hematocrit mean change,[1]; end of treatment vs prior,2.3%
same,hemoglobin mean change,[1]; end of treatment vs prior,0.6 g/dL
same,red blood cell count mean change,[1]; end of treatment vs prior,2e+11 L⁻¹
same,overall safety and tolerability,[1]; in vivo,safe and well tolerated
same,serious AEs,[1]; in vivo,no serious AEs
same,subjects with normal hemoglobin prior to treatment who had low hemoglobin at the end of treatment,[1]; no clinical significance,13%
same,dizziness,[1]; number of events,3
same,neurologic complaints,[1]; number of events,15
same,paresthesias,[1]; number of events,3
same,headaches,"[1]; number of events, in a total of 7 subjects",8
same,subjects prematurely withdrawn due to adverse events,[1]; of 6 withdrawn,4
same,samples with hyperkalemia,"[1]; of the 72 samples drawn at the end of the study, due to hemolyzed specimens",55
same,ABDOMINAL PAIN (treatment emergent AE),[1]; sequence A D B C (N = 20),5.0%
same,CONJUNCTIVITIS (treatment emergent AE),[1]; sequence A D B C (N = 20),5.0%
same,DIARRHEA (treatment emergent AE),[1]; sequence A D B C (N = 20),0.0%
same,DIZZINESS (treatment emergent AE),[1]; sequence A D B C (N = 20),15.0%
same,"EDEMA, PALMAR (treatment emergent AE)",[1]; sequence A D B C (N = 20),5.0%
same,"ERYTHEMA, EXTERNAL NOSE (treatment emergent AE)",[1]; sequence A D B C (N = 20),0.0%
same,"ERYTHEMA, PALMAR (treatment emergent AE)",[1]; sequence A D B C (N = 20),5.0%
same,HEADACHE (treatment emergent AE),[1]; sequence A D B C (N = 20),5.0%
same,HYPOTONIA (treatment emergent AE),[1]; sequence A D B C (N = 20),0.0%
same,INJECTION SITE REACTION (treatment emergent AE),[1]; sequence A D B C (N = 20),0.0%
same,LEG CRAMPS (treatment emergent AE),[1]; sequence A D B C (N = 20),0.0%
same,NAUSEA (treatment emergent AE),[1]; sequence A D B C (N = 20),5.0%
same,NAUSEA AND VOMITING (treatment emergent AE),[1]; sequence A D B C (N = 20),5.0%
same,Number of Subject With At Least one AE,[1]; sequence A D B C (N = 20),25.0%
same,Number of Subject With No AE,[1]; sequence A D B C (N = 20),75.0%
same,PARESTHESIA (treatment emergent AE),[1]; sequence A D B C (N = 20),0.0%
same,PHARYNGITIS (treatment emergent AE),[1]; sequence A D B C (N = 20),0.0%
same,RASH (treatment emergent AE),[1]; sequence A D B C (N = 20),0.0%
same,[…] (treatment emergent AE),[1]; sequence A D B C (N = 20),0.0%
same,ABDOMINAL PAIN (treatment emergent AE),[1]; sequence B A C D (N = 18),0.0%
same,CONJUNCTIVITIS (treatment emergent AE),[1]; sequence B A C D (N = 18),0.0%
same,DIARRHEA (treatment emergent AE),[1]; sequence B A C D (N = 18),0.0%
same,DIZZINESS (treatment emergent AE),[1]; sequence B A C D (N = 18),0.0%
same,"EDEMA, PALMAR (treatment emergent AE)",[1]; sequence B A C D (N = 18),0.0%
same,"ERYTHEMA, EXTERNAL NOSE (treatment emergent AE)",[1]; sequence B A C D (N = 18),0.0%
same,"ERYTHEMA, PALMAR (treatment emergent AE)",[1]; sequence B A C D (N = 18),0.0%
same,HEADACHE (treatment emergent AE),[1]; sequence B A C D (N = 18),0.0%
same,HYPOTONIA (treatment emergent AE),[1]; sequence B A C D (N = 18),0.0%
same,INJECTION SITE REACTION (treatment emergent AE),[1]; sequence B A C D (N = 18),5.6%
same,LEG CRAMPS (treatment emergent AE),[1]; sequence B A C D (N = 18),0.0%
same,NAUSEA (treatment emergent AE),[1]; sequence B A C D (N = 18),0.0%
same,NAUSEA AND VOMITING (treatment emergent AE),[1]; sequence B A C D (N = 18),0.0%
same,Number of Subject With At Least one AE,[1]; sequence B A C D (N = 18),22.2%
same,Number of Subject With No AE,[1]; sequence B A C D (N = 18),77.8%
same,PARESTHESIA (treatment emergent AE),[1]; sequence B A C D (N = 18),11.1%
same,PHARYNGITIS (treatment emergent AE),[1]; sequence B A C D (N = 18),0.0%
same,RASH (treatment emergent AE),[1]; sequence B A C D (N = 18),5.6%
same,[…] (treatment emergent AE),[1]; sequence B A C D (N = 18),5.6%
same,ABDOMINAL PAIN (treatment emergent AE),[1]; sequence C B D A (N = 18),0.0%
same,CONJUNCTIVITIS (treatment emergent AE),[1]; sequence C B D A (N = 18),0.0%
same,DIARRHEA (treatment emergent AE),[1]; sequence C B D A (N = 18),5.6%
same,DIZZINESS (treatment emergent AE),[1]; sequence C B D A (N = 18),0.0%
same,"EDEMA, PALMAR (treatment emergent AE)",[1]; sequence C B D A (N = 18),0.0%
same,"ERYTHEMA, EXTERNAL NOSE (treatment emergent AE)",[1]; sequence C B D A (N = 18),5.6%
same,"ERYTHEMA, PALMAR (treatment emergent AE)",[1]; sequence C B D A (N = 18),0.0%
same,HEADACHE (treatment emergent AE),[1]; sequence C B D A (N = 18),16.7%
same,HYPOTONIA (treatment emergent AE),[1]; sequence C B D A (N = 18),5.6%
same,INJECTION SITE REACTION (treatment emergent AE),[1]; sequence C B D A (N = 18),0.0%
same,LEG CRAMPS (treatment emergent AE),[1]; sequence C B D A (N = 18),0.0%
same,NAUSEA (treatment emergent AE),[1]; sequence C B D A (N = 18),0.0%
same,NAUSEA AND VOMITING (treatment emergent AE),[1]; sequence C B D A (N = 18),0.0%
same,Number of Subject With At Least one AE,[1]; sequence C B D A (N = 18),22.2%
same,Number of Subject With No AE,[1]; sequence C B D A (N = 18),77.8%
same,PARESTHESIA (treatment emergent AE),[1]; sequence C B D A (N = 18),0.0%
same,PHARYNGITIS (treatment emergent AE),[1]; sequence C B D A (N = 18),0.0%
same,RASH (treatment emergent AE),[1]; sequence C B D A (N = 18),0.0%
same,[…] (treatment emergent AE),[1]; sequence C B D A (N = 18),0.0%
same,ABDOMINAL PAIN (treatment emergent AE),[1]; sequence D C A B (N = 18),0.0%
same,CONJUNCTIVITIS (treatment emergent AE),[1]; sequence D C A B (N = 18),0.0%
same,DIARRHEA (treatment emergent AE),[1]; sequence D C A B (N = 18),0.0%
same,DIZZINESS (treatment emergent AE),[1]; sequence D C A B (N = 18),0.0%
same,"EDEMA, PALMAR (treatment emergent AE)",[1]; sequence D C A B (N = 18),0.0%
same,"ERYTHEMA, EXTERNAL NOSE (treatment emergent AE)",[1]; sequence D C A B (N = 18),0.0%
same,"ERYTHEMA, PALMAR (treatment emergent AE)",[1]; sequence D C A B (N = 18),0.0%
same,HEADACHE (treatment emergent AE),[1]; sequence D C A B (N = 18),16.7%
same,HYPOTONIA (treatment emergent AE),[1]; sequence D C A B (N = 18),0.0%
same,INJECTION SITE REACTION (treatment emergent AE),[1]; sequence D C A B (N = 18),0.0%
same,LEG CRAMPS (treatment emergent AE),[1]; sequence D C A B (N = 18),5.6%
same,NAUSEA (treatment emergent AE),[1]; sequence D C A B (N = 18),0.0%
same,NAUSEA AND VOMITING (treatment emergent AE),[1]; sequence D C A B (N = 18),0.0%
same,Number of Subject With At Least one AE,[1]; sequence D C A B (N = 18),27.8%
same,Number of Subject With No AE,[1]; sequence D C A B (N = 18),72.2%
same,PARESTHESIA (treatment emergent AE),[1]; sequence D C A B (N = 18),5.6%
same,PHARYNGITIS (treatment emergent AE),[1]; sequence D C A B (N = 18),0.0%
same,RASH (treatment emergent AE),[1]; sequence D C A B (N = 18),0.0%
same,[…] (treatment emergent AE),[1]; sequence D C A B (N = 18),0.0%
same,severe AEs,"[1]; severe pharyngitis, judged unrelated to study treatment",1
same,DURATION,[2]; IM,2 to 3 h
same,ONSET,[2]; IM,15 to 35 min
same,DURATION,[2]; PO,3 to 4 h
same,ONSET,[2]; PO,10 to 40 min
same,DURATION,[2]; Rect,3 to 4 h
same,ONSET,[2]; Rect,10 to 40 min
same,plasma levels of an oral dose of 400 milligrams vs a 200-milligram intramuscular dose,[3],APP[…]
same,"systemic bioavailability of orally administered drug, of the bioavailability of intramuscularly administered drug",[3],about 60%
